# In ChEMBL document CHEMBL2440076, “New triarylpyrazoles as broad-spectrum anticancer agents: design, synthesis, and biological evaluation” (Eur J Med Chem, 2013):
# Experiments:
# Format in all cases: functional
# KM12 = experiment: Growth inhibition of human KM12 cells assessed as cell growth at 5X10'-9 M after 48 hrs by sulforhodamine B assay; details: KM12, 48 h, read-out: Activity
# MDA-MB-435 = experiment: Growth inhibition of human MDA-MB-435 cells assessed as cell growth at 5X10'-5 M after 48 hrs by sulforhodamine B assay; details: MDA-MB-435, 48 h, read-out: Activity
# SF-268 [1] = experiment: Growth inhibition of human SF268 cells assessed as cell growth at 5X10'-5 M after 48 hrs by sulforhodamine B assay; details: SF-268, 48 h, read-out: Activity
# SW-620 = experiment: Growth inhibition of human SW620 cells assessed as cell growth at 5X10'-5 M after 48 hrs by sulforhodamine B assay; details: SW-620, 48 h, read-out: Activity
# MOLT-4 = experiment: Growth inhibition of human MOLT4 cells assessed as cell growth at 5X10'-5 M after 48 hrs by sulforhodamine B assay; details: MOLT-4, 48 h, read-out: Activity
# MCF7 [2] = experiment: Growth inhibition of human MCF7 cells assessed as cell growth at 5X10'-6 M after 48 hrs by sulforhodamine B assay; details: MCF7, 48 h, read-out: Activity
# 786-0 [3] = experiment: Growth inhibition of human 786-0 cells assessed as cell growth at 5X10'-6 M after 48 hrs by sulforhodamine B assay; details: 786-0, 48 h, read-out: Activity
# SK-OV-3 = experiment: Growth inhibition of human SKOV3 cells assessed as cell growth at 5X10'-6 M after 48 hrs by sulforhodamine B assay; details: SK-OV-3, 48 h, read-out: Activity
# OVCAR-8 [4] = experiment: Growth inhibition of human OVCAR8 cells assessed as cell growth at 5X10'-6 M after 48 hrs by sulforhodamine B assay; details: OVCAR-8, 48 h, read-out: Activity
# HOP-62 [5] = experiment: Growth inhibition of human HOP62 cells assessed as cell growth at 5X10'-9 M after 48 hrs by sulforhodamine B assay; details: HOP-62, 48 h, read-out: Activity
# SR = experiment: Growth inhibition of human SR cells assessed as cell growth at 5X10'-9 M after 48 hrs by sulforhodamine B assay; details: read-out: Activity
# MDA-MB-468 [6] = experiment: Growth inhibition of human MDA-MB-468 cells assessed as cell growth at 5X10'-7 M after 48 hrs by sulforhodamine B assay; details: MDA-MB-468, 48 h, read-out: Activity
# PC-3 [7] = experiment: Growth inhibition of human PC3 cells assessed as cell growth at 5X10'-7 M after 48 hrs by sulforhodamine B assay; details: PC-3, 48 h, read-out: Activity
# ACHN = experiment: Growth inhibition of human ACHN cells assessed as cell growth at 5X10'-7 M after 48 hrs by sulforhodamine B assay; details: read-out: Activity
# OVCAR-8 [8] = experiment: Growth inhibition of human OVCAR8 cells assessed as cell growth at 5X10'-7 M after 48 hrs by sulforhodamine B assay; details: OVCAR-8, 48 h, read-out: Activity
# SK-MEL-28 [9] = experiment: Growth inhibition of human SK-MEL-28 cells assessed as cell growth at 5X10'-7 M after 48 hrs by sulforhodamine B assay; details: SK-MEL-28, 48 h, read-out: Activity
# LOX IMVI = experiment: Growth inhibition of human LOXIMVI cells assessed as cell growth at 5X10'-7 M after 48 hrs by sulforhodamine B assay; details: read-out: Activity
# SF-268 [10] = experiment: Growth inhibition of human SF268 cells assessed as cell growth at 5X10'-7 M after 48 hrs by sulforhodamine B assay; details: SF-268, 48 h, read-out: Activity
# SF-295 = experiment: Growth inhibition of human SF295 cells assessed as cell growth at 5X10'-7 M after 48 hrs by sulforhodamine B assay; details: SF-295, 48 h, read-out: Activity
# HCT-116 = experiment: Growth inhibition of human HCT116 cells assessed as cell growth at 5X10'-7 M after 48 hrs by sulforhodamine B assay; details: HCT-116, 48 h, read-out: Activity
# HOP-62 [11] = experiment: Growth inhibition of human HOP62 cells assessed as cell growth at 5X10'-7 M after 48 hrs by sulforhodamine B assay; details: HOP-62, 48 h, read-out: Activity
# MDA-MB-468 [12] = experiment: Growth inhibition of human MDA-MB-468 cells assessed as cell growth at 5X10'-8 M after 48 hrs by sulforhodamine B assay; details: MDA-MB-468, 48 h, read-out: Activity
# MCF7 [13] = experiment: Growth inhibition of human MCF7 cells assessed as cell growth at 5X10'-8 M after 48 hrs by sulforhodamine B assay; details: MCF7, 48 h, read-out: Activity
# PC-3 [14] = experiment: Growth inhibition of human PC3 cells assessed as cell growth at 5X10'-8 M after 48 hrs by sulforhodamine B assay; details: PC-3, 48 h, read-out: Activity
# TK-10 [15] = experiment: Growth inhibition of human TK10 cells assessed as cell growth at 5X10'-8 M after 48 hrs by sulforhodamine B assay; details: TK-10, 48 h, read-out: Activity
# RXF 393 = experiment: Growth inhibition of human RXF393 cells assessed as cell growth at 5X10'-8 M after 48 hrs by sulforhodamine B assay; details: RXF 393, 48 h, read-out: Activity
# 786-0 [16] = experiment: Growth inhibition of human 786-0 cells assessed as cell growth at 5X10'-8 M after 48 hrs by sulforhodamine B assay; details: 786-0, 48 h, read-out: Activity
# OVCAR-8 [17] = experiment: Growth inhibition of human OVCAR8 cells assessed as cell growth at 5X10'-8 M after 48 hrs by sulforhodamine B assay; details: OVCAR-8, 48 h, read-out: Activity
# U-251 = experiment: Growth inhibition of human U251 cells assessed as cell growth at 5X10'-8 M after 48 hrs by sulforhodamine B assay; details: U-251, 48 h, read-out: Activity
# UO-31 = experiment: Growth inhibition of human UO31 cells assessed as cell growth at 5X10'-5 M after 48 hrs by sulforhodamine B assay; details: UO-31, 48 h, read-out: Activity
# PC-3 [18] = experiment: Growth inhibition of human PC3 cells assessed as cell growth at 5X10'-5 M after 48 hrs by sulforhodamine B assay; details: PC-3, 48 h, read-out: Activity
# A549 = experiment: Growth inhibition of human A549/ATCC cells assessed as cell growth at 5X10'-8 M after 48 hrs by sulforhodamine B assay; details: A549, 48 h, read-out: Activity
# MDA-MB-468 [19] = experiment: Growth inhibition of human MDA-MB-468 cells assessed as cell growth at 5X10'-9 M after 48 hrs by sulforhodamine B assay; details: MDA-MB-468, 48 h, read-out: Activity
# MCF7 [20] = experiment: Growth inhibition of human MCF7 cells assessed as cell growth at 5X10'-9 M after 48 hrs by sulforhodamine B assay; details: MCF7, 48 h, read-out: Activity
# TK-10 [21] = experiment: Growth inhibition of human TK10 cells assessed as cell growth at 5X10'-9 M after 48 hrs by sulforhodamine B assay; details: TK-10, 48 h, read-out: Activity
# OVCAR-5 = experiment: Growth inhibition of human OVCAR5 cells assessed as cell growth at 5X10'-9 M after 48 hrs by sulforhodamine B assay; details: OVCAR-5, 48 h, read-out: Activity
# SK-MEL-2 = experiment: Growth inhibition of human SK-MEL-2 cells assessed as cell growth at 5X10'-9 M after 48 hrs by sulforhodamine B assay; details: SK-MEL-2, 48 h, read-out: Activity
# SK-MEL-28 [22] = experiment: Growth inhibition of human SK-MEL-28 cells assessed as cell growth at 5X10'-9 M after 48 hrs by sulforhodamine B assay; details: SK-MEL-28, 48 h, read-out: Activity
SMILES,growth at 0.005 µM (KM12),growth at 50 µM (MDA-MB-435),growth at 50 µM (SF-268 [1]),growth at 50 µM (SW-620),growth at 50 µM (MOLT-4),growth at 5 µM (MCF7 [2]),growth at 5 µM (786-0 [3]),growth at 5 µM (SK-OV-3),growth at 5 µM (OVCAR-8 [4]),growth at 0.005 µM (HOP-62 [5]),growth at 0.005 µM (SR),growth at 0.5 µM (MDA-MB-468 [6]),growth at 0.5 µM (PC-3 [7]),growth at 0.5 µM (ACHN),growth at 0.5 µM (OVCAR-8 [8]),growth at 0.5 µM (SK-MEL-28 [9]),growth at 0.5 µM (LOX IMVI),growth at 0.5 µM (SF-268 [10]),growth at 0.5 µM (SF-295),growth at 0.5 µM (HCT-116),other results
COc1cc(-c2nn(-c3cccc(NC(=O)c4cccc(C(F)(F)F)c4)c3)cc2-c2ccncc2)ccc1Cl,100%,-37%,8%,19%,16%,13%,27%,24%,23%,95%,96%,89%,71%,81%,91%,87%,84%,88%,83%,92%,growth at 0.5 µM (HOP-62 [11]): 97%; growth at 0.05 µM (MDA-MB-468 [12]): 90%; growth at 0.05 µM (MCF7 [13]): 90%; growth at 0.05 µM (PC-3 [14]): 99%; growth at 0.05 µM (TK-10 [15]): 97%; growth at 0.05 µM (RXF 393): 99%; growth at 0.05 µM (786-0 [16]): 98%; growth at 0.05 µM (OVCAR-8 [17]): 99%; growth at 0.05 µM (U-251): 94%; growth at 50 µM (UO-31): 19%; growth at 50 µM (PC-3 [18]): 14%; growth at 0.05 µM (A549): 98%; growth at 0.005 µM (MDA-MB-468 [19]): 94%; growth at 0.005 µM (MCF7 [20]): 94%; growth at 0.005 µM (TK-10 [21]): 95%; growth at 0.005 µM (OVCAR-5): 95%; growth at 0.005 µM (SK-MEL-2): 96%; growth at 0.005 µM (SK-MEL-28 [22]): 103%
O=C(Nc1cccc(-n2cc(-c3ccncc3)c(-c3ccc(Cl)c(O)c3)n2)c1)Nc1cc(C(F)(F)F)cc(C(F)(F)F)c1,105%,-69%,-65%,-75%,-29%,4%,-23%,-13%,4%,95%,102%,37%,41%,55%,52%,84%,76%,73%,61%,46%,growth at 0.5 µM (HOP-62 [11]): 96%; growth at 0.05 µM (MDA-MB-468 [12]): 85%; growth at 0.05 µM (MCF7 [13]): 85%; growth at 0.05 µM (PC-3 [14]): 89%; growth at 0.05 µM (TK-10 [15]): 107%; growth at 0.05 µM (RXF 393): 89%; growth at 0.05 µM (786-0 [16]): 99%; growth at 0.05 µM (OVCAR-8 [17]): 93%; growth at 0.05 µM (U-251): 93%; growth at 50 µM (UO-31): -86%; growth at 50 µM (PC-3 [18]): -49%; growth at 0.05 µM (A549): 94%; growth at 0.005 µM (MDA-MB-468 [19]): 94%; growth at 0.005 µM (MCF7 [20]): 91%; growth at 0.005 µM (TK-10 [21]): 107%; growth at 0.005 µM (OVCAR-5): 96%; growth at 0.005 µM (SK-MEL-2): 112%; growth at 0.005 µM (SK-MEL-28 [22]): 101%
O=C(Nc1cccc(-n2cc(-c3ccncc3)c(-c3ccc(Cl)c(O)c3)n2)c1)c1ccc(N2CCOCC2)c(C(F)(F)F)c1,94%,1%,30%,-31%,-5%,41%,35%,72%,41%,91%,94%,92%,85%,85%,86%,91%,92%,104%,93%,99%,growth at 0.5 µM (HOP-62 [11]): 117%; growth at 0.05 µM (MDA-MB-468 [12]): 93%; growth at 0.05 µM (MCF7 [13]): 85%; growth at 0.05 µM (PC-3 [14]): 96%; growth at 0.05 µM (TK-10 [15]): 92%; growth at 0.05 µM (RXF 393): 101%; growth at 0.05 µM (786-0 [16]): 95%; growth at 0.05 µM (OVCAR-8 [17]): 106%; growth at 0.05 µM (U-251): 101%; growth at 50 µM (UO-31): -5%; growth at 50 µM (PC-3 [18]): 7%; growth at 0.05 µM (A549): 101%; growth at 0.005 µM (MDA-MB-468 [19]): 95%; growth at 0.005 µM (MCF7 [20]): 89%; growth at 0.005 µM (TK-10 [21]): 94%; growth at 0.005 µM (OVCAR-5): 98%; growth at 0.005 µM (SK-MEL-2): 96%; growth at 0.005 µM (SK-MEL-28 [22]): 104%
